In US5034531A, “Fused polycyclic pyranyl compounds as antiviral agents” (priority 1988, dated 1991):
In brackets after ≈: the same amount, converted by molar mass.

System: HSV-2
Test: Transient expression assay: inhibition of HSV replication (HSV-2-induced β-galactosidase expression from HSV-1 TK promoter/Lac Z plasmid pON 245 in HeLa cells)
Assay type: cell-based, Herpes simplex virus HSV-2 (ATCC VR-540)
Conditions: Human alphaherpesvirus 2, HeLa, 24 h, read-out: IC50-values for Inhibition of HSV replication
Method: The following example illustrates the activities of various compounds for inhibiting beta-galactosidase.
Transient Expression Assay
Herpes simplex virus (HSV) is grown and titered on Vero cells, a standard cell line.
Plasmid pON 245 (constructed by Ed Mocarski at Stanford University, Stanford California) is used for the assay. This plasmid contains the HSV-1 thymidine kinase (TK) promoter located immediately 5' of the E. coli Lac Z gene and controls transcription from the bacterial gene in transient assays. Plasmids (22 μg/10^6 cells) are introduced into standard HeLa cells by DEAE-dextran-mediated transfection. DEAE-dextran is an electropositivity charged polymer which is a diethylamino ethyl ether of dextran. Forty-eight hours after transfection, cells are infected with HSV-2 (American Type Collection Culture (ATCC) VR-540) (multiplicity of infection=5 plaque-forming units per cell). Twenty-four hours after viral infection, levels of β-galactosidase in cells are assayed by incubation in the presence of 4-methylumbelliferyl-β-D-galactoside for 2 hours on a microfluorimeter after addition of 0.1 M glycine buffer, pH=10.3. An inhibitory concentration (IC50 value), for example, of 8 μg/ml indicates the amount of compound which reduces maximal β-galactosidase expression by 50 percent. The inhibition of expression of β-galactosidase activity indicates the inhibition of viral replication at events prior to or including […] kinase (TK) expression by HSV-2.

O=c1c2c(oc3ncccc13)-c1ccccc1CCC2
IC50: > 25 µg/mL

O=c1c2c(oc3ncccc13)CCc1ccccc1-2
IC50: 16 µg/mL (≈ 64.2 µM)

O=c1c2c(oc3ccccc13)-c1ccccc1CCC2
IC50: 8 µg/mL (≈ 30.5 µM)

O=c1c(-c2ccccc2)coc2ncc(Br)cc12
IC50: 10 µg/mL (≈ 33.1 µM)
